According to PMC7442255, “Characterization of the Corynebacterium glutamicum dehydroshikimate dehydratase QsuB and its potential for microbial production of protocatechuic acid” (PLoS ONE, 2020):
“And” between values parts separate entries of the source, which are not always exact repeats. Identical values can stand only once. Like-named read-outs stand apart in the source and are kept apart here.

Assays:
N-QsuB = N-QsuB (Corynebacterium glutamicum, UniProt Q8NT86); assay: DSD activity assay of purified N-QsuB (N-terminal domain of QsuB); type: biochemical
QsuB = QsuB (Corynebacterium glutamicum, UniProt Q8NT86); assay: DSD activity assay of purified QsuB (3,4-DHBA formation at 290 nm); type: biochemical
AsbF B. t. 97-27 = test system: AsbF B. t. 97-27; set-up: method as in PMID 18975921; settings: pH 8.6, 37°C ref [12], cited from earlier work
QuiC1 = test system: QuiC1; set-up: method as in PMID 27706847; settings: cited from earlier work
[1] = biological target: QsuB, dehydroshikimate dehydratase (DSD) from Corynebacterium glutamicum (Corynebacterium glutamicum); assay: SEC; Superose 6 Increase 10/300 GL; 50 mM Tris-HCl (pH 7.5), 500 mM NaCl, 5% v/v glycerol; 0.4 ml/min; A280; mass from a calibration curve of standard proteins; self-association of QsuB
QsuB C-terminal domain = assay: Test of dioxygenase activity of the C-terminal domain towards 3,4-DHBA (UV spectrum); type: biochemical, Corynebacterium glutamicum; settings: pH 7.5, incubation with QsuB up to 60 min
Experimental: An inhibition type and inhibition constants of the enzyme reaction were determined by a graphical method. The experimental data were plotted as (Vmax–v)/v versus the inhibitor concentration (0 ‒ 0.4 mM 3,4-DHBA) at 0.5/ 1/ 1.5 mM concentrations of DHS, where Vmax and v represented the maximal velocity and the velocity in the absence and presence of inhibitor with given concentrations of the substrate, respectively. The dioxygenase activity of the C-terminal domain was tested with the crude extracts in the reaction mixture of 0.1 M Tris/HCl buffer (pH 7.5), 10 mM MgCl2, 0.1 mM DHBA, and 30 nM of overall protein.
Thus, a possible activity of the C-terminal domain leading to conversion of 3,4-DHBA into another product was not detected under our experimental conditions.

[2] = biological target: N-QsuB, N-terminal domain of QsuB (Corynebacterium glutamicum); assay: SEC; Superose 6 Increase 10/300 GL; 50 mM sodium phosphate (pH 7.0), 150 mM NaCl; 0.5 ml/min; A280; mass from a calibration curve of standard proteins; self-association of N-QsuB
E. coli = settings: cited from earlier work
C. glutamicum = settings: cited from earlier work
[3] = substrate: O=C(O)C1=CC(=O)C(O)C(O)C1; assay: DSD activity assay of purified N-QsuB (N-terminal domain of QsuB); type: biochemical, Corynebacterium glutamicum; settings: other: N-QsuB, pH 7.5, 20°C
[4] = N-QsuB, 1 mM DHS, 10 mM metal salt, normalized against cobalt
[5] = QsuB, 1 mM DHS, 10 mM metal salt, normalized against cobalt

Chain of QsuB (Q8NT86 entry or part of it): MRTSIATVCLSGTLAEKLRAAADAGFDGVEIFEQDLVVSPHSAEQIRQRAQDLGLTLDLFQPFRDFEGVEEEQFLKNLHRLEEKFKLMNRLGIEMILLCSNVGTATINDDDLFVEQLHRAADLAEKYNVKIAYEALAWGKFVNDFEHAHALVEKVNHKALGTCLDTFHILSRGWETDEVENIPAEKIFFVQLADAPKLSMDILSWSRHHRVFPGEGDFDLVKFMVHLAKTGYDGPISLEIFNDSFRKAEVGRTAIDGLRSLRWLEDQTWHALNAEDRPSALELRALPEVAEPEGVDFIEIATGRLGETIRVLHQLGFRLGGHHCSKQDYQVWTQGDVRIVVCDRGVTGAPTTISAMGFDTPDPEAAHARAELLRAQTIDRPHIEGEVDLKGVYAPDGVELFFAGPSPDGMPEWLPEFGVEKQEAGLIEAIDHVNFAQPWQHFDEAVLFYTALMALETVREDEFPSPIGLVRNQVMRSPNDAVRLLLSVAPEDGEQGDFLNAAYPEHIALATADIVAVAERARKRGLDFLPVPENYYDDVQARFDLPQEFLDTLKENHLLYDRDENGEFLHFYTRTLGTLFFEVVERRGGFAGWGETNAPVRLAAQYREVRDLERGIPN

In the case of `[Cl][Mn][Cl]` [Mn, MnCl2], the “Specific activity (relative DSD activity with divalent metal)” value (N-QsuB; [4]) is reported as 21% and the “Specific activity (relative DSD activity with divalent metal)” value (QsuB; [5]) is reported as 17%.

In the case of `O=C(O)C1=CC(=O)C(O)C(O)C1` (stereo not shown) [DHS, 3-dehydroshikimic acid], the Km (AsbF B. t. 97-27; read-out: Km (DHS)) is given as 125 ± 14 µM, the kcat (AsbF B. t. 97-27; substrate DHS) is given as 3.6 ± 0.2 s⁻¹ and the Km (QuiC1; QuiC1, pH 7.5, 25°C ref [15], read-out: Km (DHS)) is given as 331 ± 51 µM. The kcat (QuiC1; QuiC1, substrate DHS, pH 7.5, 25°C ref [15]) was 163.6 ± 8.5 s⁻¹, the IC50 (N-QsuB; N-QsuB, substrate inhibition, calculated from data of Fig 6, read-out: IC50 (decrease of DSD activity by substrate DHS)) was about 5500 µM and the kcat (QsuB; QsuB, substrate DHS, pH 7.5, 20°C) was 60.8 ± 0.9 s⁻¹. It also gave an IC50 (QsuB; QsuB, substrate inhibition, calculated from data of Fig 6, read-out: IC50 (decrease of DSD activity by substrate DHS)) of about 4200 µM.

In the case of `[Cl-].[Cl-].[Mg+2]` [Mg, MgCl2], the “Specific activity (relative DSD activity with divalent metal)” value (N-QsuB; [4]) is reported as 22% and the “Specific activity (relative DSD activity with divalent metal)” value (QsuB; [5]) is reported as 24%.

With “QsuB, dehydroshikimate dehydratase (DSD) from Corynebacterium glutamicum (enzyme)” the percent present as monomers [1] was 15%, the percent present as octamers [1] was 60% and the percent present as tetramers [1] was 25%. The stoichiometry N [1] was 8 and 4.

In the case of `O=C(O)c1ccc(O)c(O)c1` [3,4-DHBA, 3,4-dihydroxybenzoic acid], the inhibition type (N-QsuB; N-QsuB, quotient velocity plot) is reported as “noncompetitive inhibition”, the Ki (N-QsuB; N-QsuB, quotient velocity plot, 0.5/1/1.5 mM DHS, read-out: Ki (binding to the enzyme)) is reported as about 690 µM and the “conversion of 3,4-DHBA (change of UV spectrum)” value (QsuB C-terminal domain) is reported as “no difference in the UV spectrum was observed”. The inhibition type (QsuB; QsuB, quotient velocity plot) was “mix inhibition type”, the “Ki' (binding to the enzyme-substrate complex)” value (QsuB; QsuB, quotient velocity plot, 0.5/1/1.5 mM DHS) was ~ 0.96 mM and the Ki (QsuB; QsuB, quotient velocity plot, 0.5/1/1.5 mM DHS, read-out: Ki (binding to the enzyme)) was about 380 µM.

With `O=C(O)CN(CCN(CC(=O)O)CC(=O)O)CC(=O)O` [EDTA] the “effect on DSD activity without added metal ions” value (N-QsuB) was “inhibited” and the “effect on DSD activity without added metal ions” value (QsuB) was “inhibited”.

With “N-QsuB, N-terminal domain of QsuB (domain or fragment)” the stoichiometry N [2] was 2.

In the case of `[Cl-].[Cl-].[Co+2]` [Co, CoCl2], the “Co^2+ concentration tolerated” value (E. coli) is given as under 1 mM, the “Specific activity (relative DSD activity with divalent metal)” value (N-QsuB) is given as 100% and the “Co^2+ concentration at which growth is possible” value (C. glutamicum) is given as 2 mM. The “Specific activity (relative DSD activity with divalent metal)” value (QsuB) was 100%.

B1: N-QsuB (Corynebacterium glutamicum ATCC 13032) (protein)
chain: MRTSIATVCLSGTLAEKLRAAADAGFDGVEIFEQDLVVSPHSAEQIRQRAQDLGLTLDLFQPFRDFEGVEEEQFLKNLHRLEEKFKLMNRLGIEMILLCSNVGTATINDDDLFVEQLHRAADLAEKYNVKIAYEALAWGKFVNDFEHAHALVEKVNHKALGTCLDTFHILSRGWETDEVENIPAEKIFFVQLADAPKLSMDILSWSRHHRVFPGEGDFDLVKFMVHLAKTGYDGPISLEIFNDSFRKAEVGRTAIDGLRSLRWLEDQTWHALNAEDRPSALELRALPEVAEPEGVDF
Molecule B1 has a Km [3] of 473 ± 71 µM, a kcat [3] of 23.4 ± 0.4 s⁻¹ and a kcat/Km [3] of 49500 ± 5600 M⁻¹ s⁻¹.
